Assay results taken from ChEMBL document CHEMBL5465560, “Selectivity Literature for EUbOPEN Chemogenomic Library” (2024).

Tests used:
[1] = biological target: Cannabinoid receptor 1 (Homo sapiens, UniProt P21554); test: Selectivity interaction (Eurofins CEREP Diversity Profile (receptors and ion channels)) EUB0000279b CNR1; details: at 10 µM
[2] = biological target: Protein-tyrosine kinase 2-beta (Homo sapiens) (UniProt Q14289); test: Selectivity interaction (Ambit KINOMEscan and KiNATiv profiling in Jurkat cells) EUB0000090b PTK2B; type: cell-based; details: at 1 µM
Chain of Protein-tyrosine kinase 2-beta (Homo sapiens) (Q14289 whole entry, looked up): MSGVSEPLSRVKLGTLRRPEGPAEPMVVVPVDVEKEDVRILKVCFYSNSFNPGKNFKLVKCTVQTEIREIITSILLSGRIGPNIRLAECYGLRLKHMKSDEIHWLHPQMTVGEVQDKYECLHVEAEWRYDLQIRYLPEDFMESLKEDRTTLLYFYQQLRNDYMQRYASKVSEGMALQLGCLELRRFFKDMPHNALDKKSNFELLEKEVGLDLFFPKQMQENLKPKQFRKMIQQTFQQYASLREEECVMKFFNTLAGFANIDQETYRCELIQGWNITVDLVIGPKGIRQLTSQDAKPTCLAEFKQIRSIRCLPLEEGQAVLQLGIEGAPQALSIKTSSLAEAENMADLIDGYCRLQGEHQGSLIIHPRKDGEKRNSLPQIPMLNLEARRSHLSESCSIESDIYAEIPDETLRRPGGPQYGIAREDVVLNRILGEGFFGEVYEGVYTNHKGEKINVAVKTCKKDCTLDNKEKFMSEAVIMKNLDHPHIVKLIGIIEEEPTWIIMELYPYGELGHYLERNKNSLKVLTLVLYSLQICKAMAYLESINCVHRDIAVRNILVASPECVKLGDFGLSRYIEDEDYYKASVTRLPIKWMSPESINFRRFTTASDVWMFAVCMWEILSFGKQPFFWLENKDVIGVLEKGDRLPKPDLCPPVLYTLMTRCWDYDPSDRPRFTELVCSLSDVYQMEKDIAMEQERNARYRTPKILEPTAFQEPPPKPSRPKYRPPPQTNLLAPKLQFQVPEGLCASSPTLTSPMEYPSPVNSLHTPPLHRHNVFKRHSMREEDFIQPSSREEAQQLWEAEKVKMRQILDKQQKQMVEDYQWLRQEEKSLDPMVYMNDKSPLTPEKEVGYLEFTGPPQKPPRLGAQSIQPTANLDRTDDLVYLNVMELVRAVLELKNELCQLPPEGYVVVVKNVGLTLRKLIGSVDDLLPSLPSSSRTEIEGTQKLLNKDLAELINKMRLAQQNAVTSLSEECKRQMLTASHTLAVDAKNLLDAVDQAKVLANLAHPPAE

[3] = biological target: Serine/threonine-protein kinase MRCK beta (Homo sapiens) (UniProt Q9Y5S2); test: Selectivity interaction (KinomeScan (DiscoverX)) EUB0000607a CDC42BPB; details: at 10 µM
[4] = biological target: Tyrosine-protein kinase ABL2 (Homo sapiens, UniProt P42684); test: Selectivity interaction (ActivX KiNativ screen (ex vivo kinase selectivity in human PBMCs)) EUB0001619a ABL2; type: cell-based; details: PBMC, at 1 µM
[5] = biological target: Hepatocyte growth factor receptor (Homo sapiens, UniProt P08581); test: Selectivity interaction (Kinase panel (enzymatic assay)) EUB0000595a MET
Chain of Hepatocyte growth factor receptor (P08581 whole entry): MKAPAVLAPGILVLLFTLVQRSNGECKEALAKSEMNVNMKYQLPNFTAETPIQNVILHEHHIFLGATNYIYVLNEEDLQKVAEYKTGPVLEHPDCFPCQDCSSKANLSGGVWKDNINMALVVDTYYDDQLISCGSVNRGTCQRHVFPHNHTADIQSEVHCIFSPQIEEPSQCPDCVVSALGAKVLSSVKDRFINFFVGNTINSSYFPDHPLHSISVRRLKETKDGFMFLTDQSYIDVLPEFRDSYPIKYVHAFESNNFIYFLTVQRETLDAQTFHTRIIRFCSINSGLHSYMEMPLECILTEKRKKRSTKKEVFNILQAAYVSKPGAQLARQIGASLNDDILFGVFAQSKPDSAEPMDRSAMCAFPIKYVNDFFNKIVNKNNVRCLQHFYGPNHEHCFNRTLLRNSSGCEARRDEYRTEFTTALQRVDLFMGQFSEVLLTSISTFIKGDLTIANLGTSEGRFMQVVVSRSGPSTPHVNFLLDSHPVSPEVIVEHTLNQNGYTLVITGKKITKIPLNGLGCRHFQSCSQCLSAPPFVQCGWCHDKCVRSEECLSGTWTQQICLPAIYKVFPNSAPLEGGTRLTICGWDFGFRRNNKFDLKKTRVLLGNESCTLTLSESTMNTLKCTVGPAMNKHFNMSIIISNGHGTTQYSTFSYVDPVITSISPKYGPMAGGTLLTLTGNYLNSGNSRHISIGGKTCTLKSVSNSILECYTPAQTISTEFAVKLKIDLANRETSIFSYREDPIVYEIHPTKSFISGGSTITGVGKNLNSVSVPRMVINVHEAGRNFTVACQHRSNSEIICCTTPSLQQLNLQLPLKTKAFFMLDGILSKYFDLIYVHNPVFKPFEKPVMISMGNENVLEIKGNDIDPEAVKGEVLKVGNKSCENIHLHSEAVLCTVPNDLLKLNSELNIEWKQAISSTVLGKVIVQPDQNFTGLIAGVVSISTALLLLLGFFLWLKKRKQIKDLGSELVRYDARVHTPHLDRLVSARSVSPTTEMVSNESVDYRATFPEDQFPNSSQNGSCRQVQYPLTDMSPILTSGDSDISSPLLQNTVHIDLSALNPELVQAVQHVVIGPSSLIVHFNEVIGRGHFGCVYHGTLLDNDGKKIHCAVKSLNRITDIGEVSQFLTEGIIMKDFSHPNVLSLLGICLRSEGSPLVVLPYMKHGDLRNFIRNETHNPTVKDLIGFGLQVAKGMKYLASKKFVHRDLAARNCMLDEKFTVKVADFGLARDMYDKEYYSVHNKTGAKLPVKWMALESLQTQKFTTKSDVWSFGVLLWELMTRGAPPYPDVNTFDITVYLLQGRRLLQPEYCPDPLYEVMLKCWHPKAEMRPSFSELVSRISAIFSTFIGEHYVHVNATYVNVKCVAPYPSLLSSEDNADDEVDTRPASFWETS

[6] = biological target: Dual specificity protein kinase CLK3 (Homo sapiens, UniProt P49761); test: Selectivity interaction (Kinase panel (KiNativ target engagement assay in Jurkat cells)) EUB0001635a CLK3; type: cell-based; details: Selectivity number of off-targets 0.0, Selectivity number of targets 233.0, Source Knowledge https://www.sciencedirect.com/science/article/pii/S2451945619300674?via%3Dihub, at 1 µM
[7] = biological target: Dual specificity protein kinase CLK4 (Homo sapiens, UniProt Q9HAZ1); test: Selectivity interaction (Kinase panel (Invitrogen)) EUB0000639a CLK4; details: at 200 nM
Chain of Dual specificity protein kinase CLK4 (Q9HAZ1 whole entry, looked up): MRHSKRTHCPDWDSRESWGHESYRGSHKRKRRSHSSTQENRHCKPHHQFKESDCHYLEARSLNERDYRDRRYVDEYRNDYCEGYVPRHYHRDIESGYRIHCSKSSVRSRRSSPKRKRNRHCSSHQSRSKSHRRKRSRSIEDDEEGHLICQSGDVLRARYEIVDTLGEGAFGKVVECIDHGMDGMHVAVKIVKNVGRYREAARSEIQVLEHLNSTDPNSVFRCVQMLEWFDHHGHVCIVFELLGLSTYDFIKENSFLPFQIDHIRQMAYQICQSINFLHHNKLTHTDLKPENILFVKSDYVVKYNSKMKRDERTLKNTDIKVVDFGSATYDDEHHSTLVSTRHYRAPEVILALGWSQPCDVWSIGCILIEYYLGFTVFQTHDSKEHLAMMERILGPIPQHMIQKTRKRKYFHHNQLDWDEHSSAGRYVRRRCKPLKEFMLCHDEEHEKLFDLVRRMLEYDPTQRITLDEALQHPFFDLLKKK

[8] = biological target: Tyrosine-protein kinase Fer (Homo sapiens) (UniProt P16591); test: Selectivity interaction (ActivX KiNativ screen (kinase selectivity in THP-1 cell lysates)) EUB0000639a FER; type: subcellular; details: lysate, at 5 µM
Chain of Tyrosine-protein kinase Fer (Homo sapiens) (P16591 whole entry, looked up): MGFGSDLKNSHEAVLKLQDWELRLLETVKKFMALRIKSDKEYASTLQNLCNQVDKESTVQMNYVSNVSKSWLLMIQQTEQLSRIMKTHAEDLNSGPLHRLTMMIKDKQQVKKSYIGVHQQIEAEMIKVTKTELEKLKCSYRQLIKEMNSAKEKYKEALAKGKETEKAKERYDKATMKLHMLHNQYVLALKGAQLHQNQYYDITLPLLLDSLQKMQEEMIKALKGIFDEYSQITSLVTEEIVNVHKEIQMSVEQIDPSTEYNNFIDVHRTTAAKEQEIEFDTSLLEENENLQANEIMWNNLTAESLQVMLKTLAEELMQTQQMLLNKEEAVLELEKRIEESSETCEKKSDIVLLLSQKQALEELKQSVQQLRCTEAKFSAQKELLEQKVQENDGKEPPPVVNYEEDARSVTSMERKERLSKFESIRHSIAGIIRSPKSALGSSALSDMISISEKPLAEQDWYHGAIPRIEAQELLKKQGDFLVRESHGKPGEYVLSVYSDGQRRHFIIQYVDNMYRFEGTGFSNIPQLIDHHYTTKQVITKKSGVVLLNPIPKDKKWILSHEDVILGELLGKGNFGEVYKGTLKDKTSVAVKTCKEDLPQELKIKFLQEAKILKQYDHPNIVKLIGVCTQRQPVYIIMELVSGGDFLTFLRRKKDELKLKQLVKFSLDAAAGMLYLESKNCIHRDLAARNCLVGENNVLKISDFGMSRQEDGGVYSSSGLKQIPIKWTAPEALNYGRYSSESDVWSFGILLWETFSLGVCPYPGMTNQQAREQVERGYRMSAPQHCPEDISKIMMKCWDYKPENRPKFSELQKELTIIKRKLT

[9] = biological target: 5-hydroxytryptamine receptor 2A (Homo sapiens, UniProt P28223); test: Selectivity interaction (Safety Panel 44tm (Eurofins)) EUB0000162b HTR2A; details: at 10 µM
[10] = biological target: T1, Serine/threonine-protein kinase DCLK1 (Homo sapiens) (UniProt O15075); test: Selectivity interaction (KinomeScan (DiscoverX)) EUB0001049a DCLK1; details: at 1 µM
T1 sequence (whole entry): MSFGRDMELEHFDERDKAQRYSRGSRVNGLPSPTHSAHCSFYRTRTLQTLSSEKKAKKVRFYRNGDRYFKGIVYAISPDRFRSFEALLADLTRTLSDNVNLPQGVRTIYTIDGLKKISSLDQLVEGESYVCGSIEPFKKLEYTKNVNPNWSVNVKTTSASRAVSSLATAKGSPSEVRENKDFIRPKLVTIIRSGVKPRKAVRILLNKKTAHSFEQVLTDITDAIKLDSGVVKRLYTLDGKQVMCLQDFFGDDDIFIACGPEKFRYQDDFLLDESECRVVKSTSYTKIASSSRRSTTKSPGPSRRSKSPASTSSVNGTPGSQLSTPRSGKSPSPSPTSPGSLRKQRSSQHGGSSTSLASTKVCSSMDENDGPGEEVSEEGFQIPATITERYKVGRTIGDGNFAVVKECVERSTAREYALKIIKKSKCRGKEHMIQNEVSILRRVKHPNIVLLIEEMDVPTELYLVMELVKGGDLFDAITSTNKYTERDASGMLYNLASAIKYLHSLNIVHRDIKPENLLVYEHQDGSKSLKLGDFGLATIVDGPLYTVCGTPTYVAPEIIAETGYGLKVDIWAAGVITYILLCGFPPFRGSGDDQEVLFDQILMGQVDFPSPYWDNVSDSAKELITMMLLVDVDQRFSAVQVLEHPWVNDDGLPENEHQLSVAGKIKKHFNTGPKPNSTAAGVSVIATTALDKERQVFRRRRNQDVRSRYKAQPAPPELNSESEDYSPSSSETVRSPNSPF

[11] = biological target: Receptor tyrosine-protein kinase erbB-2 (Homo sapiens, UniProt P04626); test: Selectivity interaction (Kinase panel (33PanQinase(R) Activity Assay)) EUB0000877a ERBB2
[12] = biological target: D(2) dopamine receptor (Homo sapiens, UniProt P14416); test: Selectivity interaction (Panel of kinases, GPCRs, ion channels and transporters (enzymatic assay)) EUB0000266bCl DRD2
Chain of D(2) dopamine receptor (P14416 whole entry): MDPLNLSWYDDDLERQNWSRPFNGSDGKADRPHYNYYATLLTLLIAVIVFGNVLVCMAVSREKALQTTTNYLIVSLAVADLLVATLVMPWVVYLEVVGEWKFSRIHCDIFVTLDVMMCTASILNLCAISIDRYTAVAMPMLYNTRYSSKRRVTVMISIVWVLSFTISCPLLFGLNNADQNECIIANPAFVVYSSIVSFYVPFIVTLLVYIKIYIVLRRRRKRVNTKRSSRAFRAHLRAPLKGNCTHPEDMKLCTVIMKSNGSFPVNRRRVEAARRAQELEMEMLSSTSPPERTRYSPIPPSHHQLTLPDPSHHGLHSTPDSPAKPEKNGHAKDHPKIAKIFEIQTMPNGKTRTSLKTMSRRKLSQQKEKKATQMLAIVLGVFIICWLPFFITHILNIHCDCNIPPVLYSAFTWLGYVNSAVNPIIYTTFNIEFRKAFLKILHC

[13] = biological target: T2, Inhibitor of nuclear factor kappa-B kinase subunit epsilon (Homo sapiens) (UniProt Q14164); test: Selectivity interaction (KinomeScan (DiscoverX)) EUB0000666a IKBKE; details: at 10 µM
T2 sequence (whole entry): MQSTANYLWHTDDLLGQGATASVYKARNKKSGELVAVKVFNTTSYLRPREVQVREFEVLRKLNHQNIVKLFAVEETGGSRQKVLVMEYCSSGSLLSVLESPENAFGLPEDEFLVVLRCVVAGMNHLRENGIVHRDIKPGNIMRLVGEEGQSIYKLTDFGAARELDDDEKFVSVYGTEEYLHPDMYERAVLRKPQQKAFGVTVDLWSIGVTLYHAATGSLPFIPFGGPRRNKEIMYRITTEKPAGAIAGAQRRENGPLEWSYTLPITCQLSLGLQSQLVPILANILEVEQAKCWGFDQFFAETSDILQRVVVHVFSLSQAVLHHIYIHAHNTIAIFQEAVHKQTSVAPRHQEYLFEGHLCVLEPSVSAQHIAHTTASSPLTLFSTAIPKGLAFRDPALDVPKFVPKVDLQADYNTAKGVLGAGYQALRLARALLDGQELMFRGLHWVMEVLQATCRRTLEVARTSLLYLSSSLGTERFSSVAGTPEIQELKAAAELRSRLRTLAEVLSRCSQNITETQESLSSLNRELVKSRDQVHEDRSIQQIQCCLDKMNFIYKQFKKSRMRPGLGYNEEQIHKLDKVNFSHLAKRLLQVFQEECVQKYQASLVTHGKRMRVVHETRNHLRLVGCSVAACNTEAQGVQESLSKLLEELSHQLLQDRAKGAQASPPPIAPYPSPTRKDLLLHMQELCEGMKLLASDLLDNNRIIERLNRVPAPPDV

[14] = biological target: Phosphatidylinositol 4-phosphate 5-kinase type-1 alpha (Homo sapiens) (UniProt Q99755); test: Selectivity interaction (KinomeScan (DiscoverX)) EUB0000666a PIP5K1A; details: at 10 µM

Chain of Cannabinoid receptor 1 (P21554 whole entry): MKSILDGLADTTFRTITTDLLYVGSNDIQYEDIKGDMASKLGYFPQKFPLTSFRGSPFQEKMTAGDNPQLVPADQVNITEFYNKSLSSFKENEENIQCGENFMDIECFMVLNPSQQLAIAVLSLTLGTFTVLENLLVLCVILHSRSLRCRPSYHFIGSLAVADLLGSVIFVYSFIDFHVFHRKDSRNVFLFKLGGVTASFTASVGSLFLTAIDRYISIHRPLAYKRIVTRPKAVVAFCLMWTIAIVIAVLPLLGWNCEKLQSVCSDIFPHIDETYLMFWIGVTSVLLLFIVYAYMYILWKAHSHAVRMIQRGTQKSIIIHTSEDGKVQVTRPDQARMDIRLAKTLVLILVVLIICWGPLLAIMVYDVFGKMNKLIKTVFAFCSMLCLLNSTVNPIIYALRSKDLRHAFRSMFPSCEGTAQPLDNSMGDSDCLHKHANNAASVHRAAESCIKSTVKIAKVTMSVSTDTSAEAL

CC(=O)c1cc(-c2ccccc2OCC2CC2)c2ncccn12
% of control [1]: 116%

CN(C)C/C=C/C(=O)Nc1ccc(C(=O)N2CCCC(Nc3ncc(Cl)c(-c4c[nH]c5ccccc45)n3)C2)cc1 (centres undefined)
% of control [2]: 93%

CNC(=O)Nc1ccc(-c2nc(N3CC4CCC(C3)O4)c3cnn(C4CCC5(CC4)OCCO5)c3n2)cc1
% of control [3]: 100%

N#Cc1cccc(-c2c[nH]c3ncnc(N4CCOCC4)c23)c1
% of inhibition [4]: -53%

COCC(=O)NC/C=C/c1ccc2ncnc(Nc3ccc(Oc4ccc(C)nc4)c(C)c3)c2c1 [CP-724714]
IC50 [5]: > 10 µM

C=CC(=O)Nc1ccc(C(=O)Nc2[nH]nc3c2CN(C(=O)N[C@H](CN(C)C)c2ccccc2)C3(C)C)cc1
% of engagement [6]: 4.3%

CC[C@@H]1[C@H](F)C(=O)N[C@@H]1COc1nccc2cc(C(N)=O)c(OC)cc12 [ZIMLOVISERTIB]
% of inhibition [7]: 75.7%
% of inhibition [8]: -6.1%

CN(C)C(=O)Cn1cc(-c2ccc(-c3cncc4ccccc34)cc2)cn1
% of control [9]: 87%

COc1cc(Nc2nc(C)cc(-c3cnn4nc(OC)ccc34)n2)cc(C(F)(F)F)c1
% of control [10]: 69%

CCC(=O)N1CC[C@H](Nc2ncnc3c2CN(c2cnc(OC)c(C(F)(F)F)c2)CC3)C1 [LENIOLISIB]
IC50 [11]: > 10 µM

CCn1c(-c2nc3cc(C(=O)N4CCCC(N)C4)ccc3n2C)cc2ccccc21 (centres undefined)
pXC50 [12]: 4.5 M

O=C(NOC[C@H](O)CO)c1ccc(F)c(F)c1Nc1ccc(I)cc1F
% of control [13]: 100%
% of control [14]: 91%
